Experimental findings from patent publication US20090048301A1 (IMCLONE SYSTEMS INCORPORATED, priority 2003, published 2009) are described below.

For test [1], the system named is bovine tubulin. As to the kind of experiment: In vitro tubulin polymerization assay (turbidity at 340 nm). Type of test: biochemical. As to conditions: 10 μM compound, 30 minute data point, vs 1% DMSO control. The method in brief: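 Bovine tubulin (97%, <3% MAPs) at 3 mg/ml final in G-PEM pH 7 with 1 mM GTP and 5% glycerol, added cold to compound wells at 37° C (1% DMSO final). A340 read each minute for 30 min; percent inhibition from 30-min point versus DMSO control.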

Test [2] deals with A431, human epidermoid carcinoma cells. As to the kind of experiment: Cell cycle analysis (FACS), mitotic arrest in G2/M. Type of test: cell-based. As to conditions: read-out: FACS Assay: concentration required to achieve inhibition in FACS assay. On the procedure: The cell cycle analysis was performed as follows. Cancer cells (A431, human epidennoid carcinoma cells) were maintained in culture in D-MEM media with 10% FBS and 1 mg/ml glutamate. Prior to experiment, cells were plated onto 6-well plates for a final density of 500,000 cells/well at the time of treatment. Cells were treated with the compounds of the invention at a concentration of about 0.01 to 1 μM final concentrations (final 0.1% DMSO) for 24 hours, then trypsinized, collected, rinsed in PBS (phosphate buffered saline), and fixed in 70% cold ethanol overnight at 4° C. The cells were then rinsed with PBS, resuspended in PBS with 0.2% Tween, RNAse was added (final 1 μg/ml), cells were incubated at 37° C. for 15 min, followed by addition of Propidium Iodide (final 50 μg/ml), and a 30 minute incubation at room temperature. DNA ploidy was analyzed using flow cytometers (Epics Excel, Beckman-Coulter, or Guava PCA-96, Guava Technologies) and mitotic arrest characterized by massive accumulation of cells in the G2/M phase of cell cycle.
Cancer cells (A431, human epidermoid cells) were maintained in culture in D-MEM media with 10% FBS and 1 mg/ml glutamate. Prior to experiment, cells are plated onto 6-well plates for a final density of 500,000 cells/well at the time of treatment. Cells were treated with compounds at 0.01-1 μM final concentrations (final […] DMS 0) for 24 hours, then trypsinized, collected, rinsed in PBS (phosphate buffered saline), and fixed in 70% cold ethanol overnight at 4° C. Cells were then rinsed with PBS, resuspended in PBS with 0.2% Tween, RNAse was added (final 1 μg/ml), cells were incubated at 37° C. for 15 min, followed by addition of Propidium Iodide (final 50 μg/ml), and a 30 minute incubation at room temperature. DNA ploidy was analyzed using cell sorters (Epics Excel, Beckman-Coulter, or Guava PCA-96, Guava Technologies) and mitotic arrest characterized by massive accumulation of cells in the G2/M phase of cell cycle.
Background: In flow cytometry, cells or beads pass a laser one at a time.

Where two headings read alike, the source gives them in different places.

On to `COc1cccc(Nc2nnc(-c3cccnc3NCc3ccco3)[nH]2)c1` [Compound 42, Furan-2-ylmethyl-{3-[5-(3-methoxy-phenylamino)-4H-[1,2,4]triazol-3-yl]-pyridin-2-yl}-amine], for which, in test [1], the “Tubulin Assay: percent inhibition at 10 μM based on 30 minute data” value (shortened to “Tubulin Assay: percent inhibition”) was determined as 69%. Also, the minimal effective concentration in test [2] (Homo sapiens, A-431, 24 h) was 10 µM.

As to `COc1cccc(-c2nnc(-c3cccnc3NCc3ccc(F)c(F)c3)[nH]2)c1` [Compound 100, (3,4-Difluoro-benzyl)-{3-[5-(3-methoxy-phenyl)-4H-[1,2,4]triazol-3-yl]-pyridin-2-yl}-amine], the “Tubulin Assay: percent inhibition” value in test [1] is given as 70%. In addition, the minimal effective concentration in test [2] (Homo sapiens, A-431, 24 h) is 10 µM.

With `Fc1ccc(CNc2ncccc2-c2nnc(Nc3ccc4c(c3)OCCO4)o2)cc1F` [Compound 161, (3,4-Difluoro-benzyl)-{3-[5-(2,3-dihydro-benzo[1,4]dioxin-6-ylamino)-[1,3,4]oxadiazol-2-yl]-pyridin-2-yl}-amine], in test [1], the “Tubulin Assay: percent inhibition” value stood at 82%. The minimal effective concentration in test [2] (Homo sapiens, A-431, 24 h) amounted to 0.1 µM.

Regarding `c1cncc(CNc2ccccc2-c2nnc(Nc3ccc4c(c3)OCCO4)o2)c1` [Compound 216, (2,3-Dihydro-benzo[1,4]dioxin-6-yl)-(5-{2-[(pyridin-3-ylmethyl)-amino]-phenyl}-[1,3,4]oxadiazol-2-yl)-amine], the “Tubulin Assay: percent inhibition” value in test [1] turned out to be 94%. The minimal effective concentration in test [2] (Homo sapiens, A-431, 24 h) is 0.1 µM.

On to `COc1cccc(Nc2nnc(-c3cccnc3NCc3ccc(F)c(F)c3)[nH]2)c1` [Compound 45, (3,4-Difluoro-benzyl)-{3-[5-(3-methoxy-phenylamino)-4H-[1,2,4]triazol-3-yl]-pyridin-2-yl}-amine], for which the “Tubulin Assay: percent inhibition” value in test [1] came to 83%. The minimal effective concentration in test [2] (Homo sapiens, A-431, 24 h) amounted to 1 µM.

For the compound `c1ccc(CNc2ccccc2-c2nnc(Nc3ccc4c(c3)OCCO4)o2)nc1` [Compound 217, (2,3-Dihydro-benzo[1,4]dioxin-6-yl)-(5-{2-[(pyridin-2-ylmethyl)-amino]-phenyl}-[1,3,4]oxadiazol-2-yl)-amine], the “Tubulin Assay: percent inhibition” value in test [1] came out at 100%. Moreover, the minimal effective concentration in test [2] (Homo sapiens, A-431, 24 h) is 0.1 µM.

For the compound `Brc1ccc(-c2nnc(-c3ccccc3NCc3ccc4[nH]ncc4c3)[nH]2)cc1` [Compound 145, {2-[5-(4-Bromo-phenyl)-4H-[1,2,4]triazol-3-yl]-phenyl}-(1H-indazol-5-ylmethyl)-amine], in test [1], the “Tubulin Assay: percent inhibition” value is reported as 58%. Besides, the minimal effective concentration in test [2] (Homo sapiens, A-431, 24 h) was 0.1 µM.

As to `COc1cccc(Nc2nnc(-c3cccnc3OCc3ccc4c(c3)OCO4)[nH]2)c1` [Compound 73, {5-[2-(Benzo[1,3]dioxol-5-ylmethoxy)-pyridin-3-yl]-4H-[1,2,4]triazol-3-yl}-(3-methoxy-phenyl)-amine], in test [1], the “Tubulin Assay: percent inhibition” value came to 70%. Also, the minimal effective concentration in test [2] (Homo sapiens, A-431, 24 h) turned out to be 1 µM.

In the case of `c1cnc(NCC2CCCO2)c(-c2nnc(Nc3ccc4c(c3)OCCO4)o2)c1` (centres unmarked) [Compound 175, {3-[5-(2,3-Dihydro-benzo[1,4]dioxin-6-ylamino)-[1,3,4]oxadiazol-2-yl]-pyridin-2-yl}-(tetrahydro-furan-2-ylmethyl)-amine], the “Tubulin Assay: percent inhibition” value in test [1] stood at 90%. Further, the minimal effective concentration in test [2] (Homo sapiens, A-431, 24 h) turned out to be 0.1 µM.

Take `COc1cc(CNc2ccccc2-c2nnc(Nc3ccc4c(c3)OCCO4)o2)cc(OC)c1` [Compound 219, (2,3-Dihydro-benzo[1,4]dioxin-6-yl)-{5-[2-(3,5-dimethoxy-benzylamino)-phenyl]-[1,3,4]oxadiazol-2-yl}-amine]: the “Tubulin Assay: percent inhibition” value in test [1] is 63%. The minimal effective concentration in test [2] (Homo sapiens, A-431, 24 h) came to 0.1 µM.

With `COc1cccc(-c2nnc(-c3ccccc3NCc3ccc4[nH]ncc4c3)[nH]2)c1` [Compound 136, (1H-Indazol-5-ylmethyl)-{2-[5-(3-methoxy-phenyl)-4H-[1,2,4]triazol-3-yl]-phenyl}-amine], the “Tubulin Assay: percent inhibition” value in test [1] was found to be 32%. Moreover, the minimal effective concentration in test [2] (Homo sapiens, A-431, 24 h) is 10 µM.

For the compound `c1cnc(NCc2ccc3c(c2)CCO3)c(-c2nnc(Nc3ccc4c(c3)OCCO4)o2)c1` [Compound 199, {3-[5-(2,3-Dihydro-benzo[1,4]dioxin-6-ylamino)-[1,3,4]oxadiazol-2-yl]-pyridin-2-yl}-(2,3-dihydro-benzofuran-5-ylmethyl)-amine], the “Tubulin Assay: percent inhibition” value in test [1] is on record as 88%. The minimal effective concentration in test [2] (Homo sapiens, A-431, 24 h) was 0.1 µM.

`c1cnc(NCC2COCCO2)c(-c2nnc(Nc3ccc4c(c3)OCO4)o2)c1` (centres unmarked) [Compound 202, {3-[5-(Benzo[1,3]dioxol-5-ylamino)-[1,3,4]oxadiazol-2-yl]-pyridin-2-yl}-[1,4]dioxan-2-ylmethyl-amine]: the “Tubulin Assay: percent inhibition” value in test [1] was found to be 89%. Further, the minimal effective concentration in test [2] (Homo sapiens, A-431, 24 h) is 0.1 µM.

Take `Brc1cnn(-c2ncccc2-c2nnc(Nc3ccc4c(c3)OCO4)o2)c1` [Compound 210, Benzo[1,3]dioxol-5-yl-{5-[2-(4-bromo-pyrazol-1-yl)-pyridin-3-yl]-[1,3,4]oxadiazol-2-yl}-amine]: the “Tubulin Assay: percent inhibition” value in test [1] is 87%. For the same compound, the minimal effective concentration in test [2] (Homo sapiens, A-431, 24 h) stood at 1 µM.

As for `c1cnc(NCc2ccc3c(c2)OCCO3)c(-c2nnc(Nc3ccc4c(c3)OCO4)o2)c1` [Compound 196, {3-[5-(Benzo[1,3]dioxol-5-ylamino)-[1,3,4]oxadiazol-2-yl]-pyridin-2-yl}-(2,3-dihydro-benzo[1,4]dioxin-6-ylmethyl)-amine], in test [1], the “Tubulin Assay: percent inhibition” value worked out at 93%. For the same compound, in test [2] (Homo sapiens, A-431, 24 h), the minimal effective concentration worked out at 1 µM.

As for `c1cnc(OCc2ccc3c(c2)OCO3)c(-c2nnc(Nc3ccc4c(c3)OCO4)[nH]2)c1` [Compound 72, Benzo[1,3]dioxol-5-yl-{5-[2-(benzo[1,3]dioxol-5-ylmethoxy)-pyridin-3-yl]-4H-[1,2,4]triazol-3-yl}-amine], the “Tubulin Assay: percent inhibition” value in test [1] came to 100%. In addition, the minimal effective concentration in test [2] (Homo sapiens, A-431, 24 h) worked out at 0.1 µM.

As to `CS(=O)(=O)c1ccc(-c2nnc(-c3cccnc3NCc3ccc4c(c3)OCCO4)[nH]2)cc1` [Compound 105, (2,3-Dihydro-benzo[1,4]dioxin-6-ylmethyl)-{3-[5-(4-methanesulfonyl-phenyl)-4H-[1,2,4]triazol-3-yl]-pyridin-2-yl}-amine], the “Tubulin Assay: percent inhibition” value in test [1] was found to be 91%. Moreover, the minimal effective concentration in test [2] (Homo sapiens, A-431, 24 h) is 1 µM.

Consider `c1coc(CNc2ncccc2-c2nnc(Nc3ccc4c(c3)OCCO4)o2)c1` [Compound 164, {3-[5-(2,3-Dihydro-benzo[1,4]dioxin-6-ylamino)-[1,3,4]oxadiazol-2-yl]-pyridin-2-yl}-furan-2-ylmethyl-amine], for which, in test [1], the “Tubulin Assay: percent inhibition” value was 73%. Also, the minimal effective concentration in test [2] (24 hours) was 0.1 µM.

Consider `FC(F)(F)c1ccc(-c2nnc(Nc3ccc4c(c3)OCO4)[nH]2)c(NCc2ccncc2)c1` [Compound 124, Benzo[1,3]dioxol-5-yl-(5-{2-[(pyridin-4-ylmethyl)-amino]-4-trifluoromethyl-phenyl}-4H-[1,2,4]triazol-3-yl)-amine], for which the “Tubulin Assay: percent inhibition” value in test [1] amounted to 93%. Moreover, the minimal effective concentration in test [2] (Homo sapiens, A-431, 24 h) amounted to 0.1 µM.
